Test results from patent US11602570B2, “Compositions and systems for renal function determination” (MediBeacon Inc., priority 2017, dated 2023).

Legend:
[1] = Stability testing of MB-102, HPLC evaluation; type: physicochemical; details: 25° C. and 60% relative humidity
Experimental: Samples of MB-102 were prepared and stored at 25° C. and 60% relative humidity for 24 months. HPLC evaluation of each sample was performed at various time points to assess the stability of the samples.

[2] = Clinical study: 12 hour urine collection, amount recovered and degree of secondary metabolism; type: in vivo, human
Experimental: (§1) In a clinical study, 60 human patients were administered MB-102 ((2R,2′R)-2,2′-((3,6-diaminopyrazine-2,5-dicarbonyl)bis(azanediyl))bis(3-hydroxypropanoic acid)) prepared in Example 12) intravenously. Blood and urine were collected in addition to the methods and techniques disclosed herein. Standard pharmacokinetic data was collected and comparison was made between the methods and techniques disclosed herein to Omnipaque® (iohexol), a known contrast agent used for GFR determination.
As part of the clinical 1 study for MB-102, urine was collected from patients for 12 hours to determine the amount recovered and degree of secondary metabolism. […] For patients having normal, stage 1 and stage 2 renal function, 12 hour collection time was sufficient for greater than 99% recovery of MB-102. In view of the pharmacokinetic data and the plasma half-life determination, less than complete collection is readily understood for patients having more serious renal function impairment.

[3] = Clinical study: plasma pharmacokinetics of MB-102 given intravenously to human patients; type: in vivo
Experimental: as §1
Shown in FIGS. 3A to 3D are data collected from the 60 human patients tested with MB-102. Plasma pharmacokinetic data was collected and analyzed using methods known in the art and compared to the data measured using the methods and techniques disclosed herein.
FIGS. 3A to 3D illustrate a two compartment pharmacokinetic model for the elimination of MB-102. The model is consistent for patients regardless of their GFR values. FIG. 3A is for patients having normal kidney function having a measured GFR (mGFR) of 120 mL/min. FIG. 3B is for patients having a mGFR of 81 mL/min. FIG. 3C is for patients having a mGFR of 28 mL/min. FIG. 3D is for patients having a mGFR of 25 mL/min. The first compartment in the two compartment model is the vascular to tissue equilibrium while the second compartment illustrates renal excretion only. On average, the time for equilibration is about one hour, and is subject dependent.
Shown in FIG. 6 is the plasma concentration half-life of MB-102 for patients having either normal kidney function, stage 1 renal impairment, stage 2 renal impairment, stage 3 renal impairment, or stage 4 renal impairment.

Purity (HPLC) ([1]; 0 months): >99%
Purity (HPLC) ([1]; 6 months): >99%
Purity (HPLC) ([1]; 12 months): 98.9%
Purity (HPLC) ([1]; 18 months): 98.3%
Purity (HPLC) ([1]; 24 months): 97.8%
MB-102 recovered from urine ([2]; patients having a mGFR value below 60, 12 hours, likewise unmetabolized): a lower percentage was recovered
MB-102 recovered unmetabolized from urine ([2]; patients having an eGFR greater than 60, after 12 hours): greater than 99%
time for equilibration (vascular to tissue equilibrium) ([3]; human patients, intravenous, on average, subject dependent): about one
average plasma half-life ([3]; normal renal function group): two
plasma half-life ([3]; stage 3 renal impairment): 4 h
Structure (SMILES): Nc1nc(C(=O)N[C@H](CO)C(=O)O)c(N)nc1C(=O)N[C@H](CO)C(=O)O [MB-102, (2R,2′R)-2,2′-((3,6-diaminopyrazine-2,5-dicarbonyl)bis(azanediyl))bis(3-hydroxypropanoic acid)]
